Measured values: patent US20250214977A1, “STAT6 INHIBITORS AND USES THEREOF” (Kymera Therapeutics, Inc., priority 2024, published 2025)

tested on: Phosphorylation of STAT6 in human A549 cells; experiment: Phosphorylated STAT6 (pSTAT6) flow cytometry assay in human A549 cells; type: cell-based; conditions: read-out: STAT6 IL4 pSTAT6 assay in A549 cells: Average IC50
Text: Example 3. Phosphorylated STAT6 (pSTAT6) Flow Cytometry Assay in Human A549 Cells
Phosphorylation of STAT6 in human A549 cells was quantitatively measured using flow cytometry technology.

Q: How did the IC50 turn out when `COc1cc(F)cnc1N1CCN(C(=O)c2cc3c(C4=CC(=O)CC4)cc(C4=CCCN(C(=O)CCn5ccnn5)C4)c(F)c3[nH]2)CC1` [Example I-1116] was run?
A: < 0.1 µM

Q: For `COc1cc(F)cnc1N1CCN(C(=O)c2cc3c(C4=CCN(c5ccccn5)CC4)cc(C4=CCCN(C(=O)CCn5ccnn5)C4)c(F)c3[nH]2)CC1` [Example I-1117], which IC50 is on record?
A: < 0.1 µM

Q: For `COc1cc(F)cnc1N1CCN(C(=O)c2cc3c(-c4ccc(-c5ccncc5)cc4)cc(C4=CCCN(C(=O)CCn5ccnn5)C4)c(F)c3[nH]2)CC1` [Example I-1118], which IC50 is on record?
A: < 0.1 µM

Q: For `COc1cc(F)cnc1N1CCN(C(=O)c2cc3c(-c4cccc5cnccc45)cc(C4=CCCN(C(=O)CCn5ccnn5)C4)c(F)c3[nH]2)CC1` [Example I-1119], which IC50 is on record?
A: < 0.1 µM

Q: Which IC50 does the source give for `COc1cc(F)cnc1N1CCN(C(=O)c2cc3c(-c4ccc(-c5ccccn5)cc4)cc(C4=CCCN(C(=O)CCn5ccnn5)C4)c(F)c3[nH]2)CC1` [Example I-1120] here?
A: < 0.1 µM

Q: `COc1cc(F)cnc1N1CCN(C(=O)c2cc3c(-c4ccc(C(C)N5CCOCC5)cc4)cc(C4=CCCN(C(=O)CCn5ccnn5)C4)c(F)c3[nH]2)CC1` (centres unmarked) [Example I-1121] was tested. Which IC50 did it give?
A: < 0.1 µM

Q: With `COc1cc(F)cnc1N1CCN(C(=O)c2cc3c(-c4ccc(CN5CCOCC5)cc4)cc(C4=CCCN(C(=O)CCn5ccnn5)C4)c(F)c3[nH]2)CC1` [Example I-1122] as the molecule, how does the IC50 read?
A: < 0.1 µM

Q: With `COc1cc(F)cnc1N1CCN(C(=O)c2cc3c(-c4ccccc4CN4CCOCC4)cc(C4=CCCN(C(=O)CCn5ccnn5)C4)c(F)c3[nH]2)CC1` [Example I-1123] as the molecule, how does the IC50 read?
A: < 0.1 µM

Q: Which IC50 does the source give for `COc1cc(F)cnc1N1CCN(C(=O)c2cc3c(-c4ccc(NC5CCCC5)cc4)cc(C4=CCCN(C(=O)CCn5ccnn5)C4)c(F)c3[nH]2)CC1` [Example I-1124] here?
A: 0.1 to 1 µM

Q: How did the IC50 turn out when `CCOCc1cc(F)ccc1-c1cc(C2=CCCN(C(=O)CCn3ccnn3)C2)c(F)c2[nH]c(C(=O)N3CCN(c4ncc(F)cc4OC)CC3)cc12` [Example I-1125] was run?
A: < 0.1 µM

Q: How did the IC50 turn out when `COc1cc(F)cnc1N1CCN(C(=O)c2cc3c(C4=CCCOC4)cc(C4=CCCN(C(=O)CCn5ccnn5)C4)c(F)c3[nH]2)CC1` [Example I-1126] was run?
A: < 0.1 µM

Q: With `CCCCOc1ccc(-c2cc(C3=CCCN(C(=O)CCn4ccnn4)C3)c(F)c3[nH]c(C(=O)N4CCN(c5ncc(F)cc5OC)CC4)cc23)cc1` [Example I-1127] as the molecule, how does the IC50 read?
A: 0.1 to 1 µM

Q: With `CCOCc1cc(-c2cc(C3=CCCN(C(=O)CCn4ccnn4)C3)c(F)c3[nH]c(C(=O)N4CCN(c5ncc(F)cc5OC)CC4)cc23)ccc1F` [Example I-1128] as the molecule, how does the IC50 read?
A: < 0.1 µM

Q: Which IC50 does the source give for `COc1cccc(/C=C/c2cc(C3=CCCN(C(=O)CCn4ccnn4)C3)c(F)c3[nH]c(C(=O)N4CCN(c5ncc(F)cc5OC)CC4)cc23)c1` [Example I-1129] here?
A: < 0.1 µM

Q: For `COc1ccccc1/C=C/c1cc(C2=CCCN(C(=O)CCn3ccnn3)C2)c(F)c2[nH]c(C(=O)N3CCN(c4ncc(F)cc4OC)CC3)cc12` [Example I-1130], which IC50 is on record?
A: 0.1 to 1 µM

Q: For `COc1cc(F)cnc1N1CCN(C(=O)c2cc3c(C4=CCN(C5CC5)CC4)cc(C4=CCCN(C(=O)CCn5ccnn5)C4)c(F)c3[nH]2)CC1` [Example I-1131], which IC50 is on record?
A: < 0.1 µM

Q: For `COc1cc(F)cnc1N1CCN(C(=O)c2cc3c(C4=CCN(Cc5ccccc5)CC4)cc(C4=CCCN(C(=O)CCn5ccnn5)C4)c(F)c3[nH]2)CC1` [Example I-1132], which IC50 is on record?
A: < 0.1 µM

Q: `COc1cc(F)cnc1N1CCN(C(=O)c2cc3c(C4=CCN(C(C)C)CC4)cc(C4=CCCN(C(=O)CCn5ccnn5)C4)c(F)c3[nH]2)CC1` [Example I-1133] was tested. Which IC50 did it give?
A: < 0.1 µM

Q: For `COc1cc(F)cnc1N1CCN(C(=O)c2cc3c(C4=CCCC4)cc(C4=CCCN(C(=O)CCn5ccnn5)C4)c(F)c3[nH]2)CC1` [Example I-1134], which IC50 is on record?
A: < 0.1 µM

Q: How did the IC50 turn out when `COc1cc(F)cnc1N1CCN(C(=O)c2cc3c(C4=CCCCC4)cc(C4=CCCN(C(=O)CCn5ccnn5)C4)c(F)c3[nH]2)CC1` [Example I-1135] was run?
A: < 0.1 µM

Q: For `COc1cc(F)cnc1N1CCN(C(=O)c2cc3c(-c4ccc(=O)n(Cc5ccccc5)c4)cc(C4=CCCN(C(=O)CCn5ccnn5)C4)c(F)c3[nH]2)CC1` [Example I-1136], which IC50 is on record?
A: < 0.1 µM

Q: How did the IC50 turn out when `COc1cc(F)cnc1N1CCN(C(=O)c2cc3c(-c4ccc(CN5CCOCC5)nc4)cc(C4=CCCN(C(=O)CCn5ccnn5)C4)c(F)c3[nH]2)CC1` [Example I-1137] was run?
A: < 0.1 µM

Q: How did the IC50 turn out when `COc1cc(F)cnc1N1CCN(C(=O)c2cc3c(-c4ccc(N5C[C@@H](C)O[C@@H](C)C5)nc4)cc(C4=CCCN(C(=O)CCn5ccnn5)C4)c(F)c3[nH]2)CC1` [Example I-1138] was run?
A: < 0.1 µM

Q: For `COc1cc(F)cnc1N1CCN(C(=O)c2cc3c(-c4ccc(C#N)c(C)c4)cc(C4=CCCN(C(=O)CCn5ccnn5)C4)c(F)c3[nH]2)CC1` [Example I-1139], which IC50 is on record?
A: < 0.1 µM

Q: How did the IC50 turn out when `COc1cc(F)cnc1N1CCN(C(=O)c2cc3c(-c4ccc(C5(C#N)CC5)cc4)cc(C4=CCCN(C(=O)CCn5ccnn5)C4)c(F)c3[nH]2)CC1` [Example I-1140] was run?
A: < 0.1 µM

Q: `COc1cc(F)cnc1N1CCN(C(=O)c2cc3c(C4=CCC(C#N)CC4)cc(C4=CCCN(C(=O)CCn5ccnn5)C4)c(F)c3[nH]2)CC1` (centres unmarked) [Example I-1141] was tested. Which IC50 did it give?
A: < 0.1 µM

Q: Which IC50 does the source give for `COc1cc(F)cnc1N1CCN(C(=O)c2cc3c(-c4ccc(C(C)(C)C#N)cc4)cc(C4=CCCN(C(=O)CCn5ccnn5)C4)c(F)c3[nH]2)CC1` [Example I-1142] here?
A: < 0.1 µM

Q: `COc1cc(F)cnc1N1CCN(C(=O)c2cc3c(-c4ccc(C(=O)N5CCCC5)cc4F)cc(C4=CCCN(C(=O)CCn5ccnn5)C4)c(F)c3[nH]2)CC1` [Example I-1143] was tested. Which IC50 did it give?
A: < 0.1 µM

Q: `COc1cc(F)cnc1N1CCN(C(=O)c2cc3c(-c4ccc(C(=O)N5CCCC5)c(F)c4)cc(C4=CCCN(C(=O)CCn5ccnn5)C4)c(F)c3[nH]2)CC1` [Example I-1144] was tested. Which IC50 did it give?
A: < 0.1 µM

Q: How did the IC50 turn out when `COc1cc(F)cnc1N1CCN(C(=O)c2cc3c(-c4ccc(C(O)C(F)(F)F)cc4)cc(C4=CCCN(C(=O)CCn5ccnn5)C4)c(F)c3[nH]2)CC1` (centres unmarked) [Example I-1145] was run?
A: < 0.1 µM

Q: How did the IC50 turn out when `COc1cc(F)cnc1N1CCN(C(=O)c2cc3c(-c4ccc(C5(O)CCC5)cc4)cc(C4=CCCN(C(=O)CCn5ccnn5)C4)c(F)c3[nH]2)CC1` [Example I-1146] was run?
A: < 0.1 µM

Q: For `COCOc1ccc(-c2cc(C3=CCCN(C(=O)CCn4ccnn4)C3)c(F)c3[nH]c(C(=O)N4CCN(c5ncc(F)cc5OC)CC4)cc23)cc1` [Example I-1147], which IC50 is on record?
A: < 0.1 µM

Q: How did the IC50 turn out when `COc1cc(F)cnc1N1CCN(C(=O)c2cc3c(-c4ccc5c(c4)OCCCO5)cc(C4=CCCN(C(=O)CCn5ccnn5)C4)c(F)c3[nH]2)CC1` [Example I-1148] was run?
A: < 0.1 µM

Q: With `COc1ccncc1-c1cc(C2=CCCN(C(=O)CCn3ccnn3)C2)c(F)c2[nH]c(C(=O)N3CCN(C4CCCCC4)CC3)cc12` [Example I-1149] as the molecule, how does the IC50 read?
A: < 0.1 µM

Q: `COc1cccnc1N1CCN(C(=O)c2cc3c(C4=CCN(C)CC4C)cc(C4=CCCN(C(=O)CCn5ccnn5)C4)c(F)c3[nH]2)CC1` (centres unmarked) [Example I-1150] was tested. Which IC50 did it give?
A: < 0.1 µM

Q: With `COc1cc(F)cnc1N1CCN(C(=O)c2cc3c(-c4cnn(C5CC5)c4)cc(C4=CCCN(C(=O)CCn5ccnn5)C4)c(F)c3[nH]2)CC1` [Example I-1151] as the molecule, how does the IC50 read?
A: < 0.1 µM

Q: Which IC50 does the source give for `COc1cc(F)cnc1N1CCN(C(=O)c2cc3c(-c4ccc(-c5cccnc5)cc4)cc(C4=CCCN(C(=O)CCn5ccnn5)C4)c(F)c3[nH]2)CC1` [Example I-1152] here?
A: < 0.1 µM

Q: For `COc1cc(F)cnc1N1CCN(C(=O)c2cc3c(C4=CCC(N5CCOCC5)CC4)cc(C4=CCCN(C(=O)CCn5ccnn5)C4)c(F)c3[nH]2)CC1` (centres unmarked) [Example I-1153], which IC50 is on record?
A: < 0.1 µM

Q: With `COc1cc(F)cnc1N1CCN(C(=O)c2cc3c(-c4cccc(CN5CCOCC5)c4)cc(C4=CCCN(C(=O)CCn5ccnn5)C4)c(F)c3[nH]2)CC1` [Example I-1154] as the molecule, how does the IC50 read?
A: < 0.1 µM

Q: Which IC50 does the source give for `COc1cc(F)cnc1N1CCN(C(=O)c2cc3c(C4=COCCC4)cc(C4=CCCN(C(=O)CCn5ccnn5)C4)c(F)c3[nH]2)CC1` [Example I-1155] here?
A: < 0.1 µM

Q: `COc1cc(F)cnc1N1CCN(C(=O)c2cc3c(C4=CCOCC4)cc(C4=CCCN(C(=O)CCn5ccnn5)C4)c(F)c3[nH]2)CC1` [Example I-1156] was tested. Which IC50 did it give?
A: < 0.1 µM

Q: How did the IC50 turn out when `COc1cc(F)cnc1N1CCN(C(=O)c2cc3c(-c4ccc(C5CC5)cc4)cc(C4=CCCN(C(=O)CCn5ccnn5)C4)c(F)c3[nH]2)CC1` [Example I-1157] was run?
A: < 0.1 µM

Q: With `COc1cc(F)cnc1N1CCN(C(=O)c2cc3c(C4=CCC(F)(F)CC4)cc(C4=CCCN(C(=O)CCn5ccnn5)C4)c(F)c3[nH]2)CC1` [Example I-1158] as the molecule, how does the IC50 read?
A: < 0.1 µM

Q: `COc1cc(F)cnc1N1CCN(C(=O)c2cc3c(C4=CCC5(CC4)CC5)cc(C4=CCCN(C(=O)CCn5ccnn5)C4)c(F)c3[nH]2)CC1` [Example I-1159] was tested. Which IC50 did it give?
A: 0.1 to 1 µM

Q: For `COc1cc(F)cnc1N1CCN(C(=O)c2cc3c(-c4ccc(C(F)F)cc4)cc(C4=CCCN(C(=O)CCn5ccnn5)C4)c(F)c3[nH]2)CC1` [Example I-1160], which IC50 is on record?
A: < 0.1 µM

Q: For `COc1cc(F)cnc1N1CCN(C(=O)c2cc3c(C4=Cc5ccccc5C4)cc(C4=CCCN(C(=O)CCn5ccnn5)C4)c(F)c3[nH]2)CC1` [Example I-1161], which IC50 is on record?
A: 0.1 to 1 µM

Q: How did the IC50 turn out when `COc1cc(F)cnc1N1CCN(C(=O)c2cc3c(/C=C/CCl)cc(C4=CCCN(C(=O)CCn5ccnn5)C4)c(F)c3[nH]2)CC1` [Example I-1162] was run?
A: 1 to 10 µM

Q: `COc1cc(F)cnc1N1CCN(C(=O)c2cc3c(/C=C/C4CCCCC4)cc(C4=CCCN(C(=O)CCn5ccnn5)C4)c(F)c3[nH]2)CC1` [Example I-1163] was tested. Which IC50 did it give?
A: 0.1 to 1 µM

Q: For `COc1cc(F)cnc1N1CCN(C(=O)c2cc3c(-c4ccc(OCC5CC5)nc4)cc(C4=CCCN(C(=O)CCn5ccnn5)C4)c(F)c3[nH]2)CC1` [Example I-1164], which IC50 is on record?
A: 0.1 to 1 µM

Q: `COc1cc(F)cnc1N1CCN(C(=O)c2cc3c(-c4ccc(C(=O)N(C)C)cc4)cc(C4=CCCN(C(=O)CCn5ccnn5)C4)c(F)c3[nH]2)CC1` [Example I-1165] was tested. Which IC50 did it give?
A: < 0.1 µM

Q: With `COc1cc(F)cnc1N1CCN(C(=O)c2cc3c(-c4ccc(OC5CCCCO5)cc4)cc(C4=CCCN(C(=O)CCn5ccnn5)C4)c(F)c3[nH]2)CC1` (centres unmarked) [Example I-1166] as the molecule, how does the IC50 read?
A: < 0.1 µM

Q: `COc1cc(F)cnc1N1CCN(C(=O)c2cc3c(-c4ccc(C(F)(F)F)cc4CO)cc(C4=CCCN(C(=O)CCn5ccnn5)C4)c(F)c3[nH]2)CC1` [Example I-1167] was tested. Which IC50 did it give?
A: < 0.1 µM

Q: With `CCC1CCCC=C1c1cc(C2=CCCN(C(=O)CCn3ccnn3)C2)c(F)c2[nH]c(C(=O)N3CCN(c4ncccc4OC)CC3)cc12` (centres unmarked) [Example I-1168] as the molecule, how does the IC50 read?
A: 0.1 to 1 µM
